# Measurements taken from PubChem BioAssay AID743417 (Broad Institute, 2014).
# Inconclusive results are not listed. Activity calls are given as the source filed them.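 Rule for the calls: active = compounds lowering the luciferase signal with a fitted half-maximal dose at most twice their top valid dose (cut at about 30 µM in these data); inconclusive = flat fits with moderate signal loss, or poor fits; inactive = the rest.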
# Tested on: Clone20 osteoblast Shn3 3'UTR firefly luciferase, 24 h
# Experiment: Schnurri-3 3'UTR-luciferase signal suppressors – cell-based, Clone20 osteoblasts, luminescence, dry powder, set 2, dose response (AID 743417)
row,Compound,AC50
1,CCc1ccc(CNCc2ccc(OCC(O)CN(C)Cc3ccccc3)cc2)nc1 (configuration not stated),4.43 µM
2,N=C1S/C(=C\c2ccc(-c3cccc(Cl)c3)o2)C(=O)N1c1nccs1,2.82 µM
3,COc1ccc(S(=O)(=O)N(C)C)cc1NC(=O)C1CCN(c2ncnc3sc(C)c(C)c23)CC1,9.21 µM
4,COc1ccc(OC)c(NC(=O)c2nc(S(=O)(=O)Cc3ccccc3)ncc2Cl)c1,2.08 µM
5,COc1ccc(-c2nc(NC(=O)C3CC(=O)N(c4ccc5c(c4)OCCO5)C3)sc2C)cc1 (configuration not stated),5.24 µM
6,O=C(CSc1ccccn1)Nc1nonc1[N+](=O)[O-],5 µM
7,CCC1CCCCN1S(=O)(=O)c1ccc(NC(=O)c2nc(S(C)(=O)=O)ncc2Cl)cc1 (configuration not stated),0.341 µM
8,COc1ccc(C(=O)NCCN(C)C)c2nc3ccccc3cc12,5.78 µM
9,CCOC(=O)C1(Cc2cccc(OC)c2)CCN(C/C=C/c2ccc(OC)cc2)CC1,4.75 µM
10,C=CCN(c1ccccc1)S(=O)(=O)c1cccc(C(=O)Nc2nc3ccccc3[nH]2)c1,10.1 µM
11,c1ccc(CN=C(NCc2ccccc2)NCc2ccccc2)cc1,1.79 µM
12,Cc1ccc(S(=O)(=O)N2CCN(c3ncnc4ccccc34)CC2)cc1,1.56 µM
13,COC(=O)c1cc2c(n1S(=O)(=O)c1ccc(C)cc1)C(=O)C(=O)c1[nH]cc(C(=O)OCc3ccccc3)c1-2,1.2 µM
14,CCN(CC)S(=O)(=O)c1ccc(N(C)Cc2ccc(C(F)(F)F)cc2)nc1,5.85 µM
15,CCOc1ccc(S(=O)(=O)NCc2ccncc2)cc1,0.261 µM
16,O=C(Nc1cc2c3c(c1)C1CCCC1CN3CC1CCCC21)c1ccc([N+](=O)[O-])cc1 (configuration not stated),2.2 µM
17,CC(C)(C)OC(=O)NCCCCCNC(=O)c1nc[nH]c1C(=O)NCc1ccc(CNC(=O)OC(C)(C)C)cc1,3.95 µM
18,C=C1C(=O)C23C(O)C1CCC2C12COC3(O)C(O)C1C(C)(C)CCC2O (configuration not stated),3.3 µM
19,Cc1cccc(CS(=O)(=O)c2ncc(Cl)c(C(=O)NCc3ccccc3)n2)c1,2.94 µM
20,CCCCCOc1ccc(Br)cc1CSC(=N)N,1.47 µM
21,COC(=O)C12OCC34C(CC5C(C)=C(O)C(=O)CC5(C)C3C(O)C1O)OC(=O)C(OC(=O)C=C(C)C)C24 (configuration not stated),< 0.26 µM
22,C=CCSc1nc2ccccc2n1C(=O)/C=C/c1cc(OC)c(OC)c(OC)c1,1.13 µM
23,CC(=O)NC(c1ccc(Cl)cc1)c1ccc2cccnc2c1O (configuration not stated),0.299 µM
24,CCOC(=O)CC1CCCCN1C(=O)c1cc(COc2cccc3cnccc23)on1 (configuration not stated),0.713 µM
25,CN(C)c1ccc(C=c2c3cc([N+](=O)[O-])ccc3n3c2cc(-c2ccccc2)[n+]3C)cc1,3.3 µM
26,COc1ccc(CC(N)c2csc(NC(=O)NC(c3ccccc3)c3ccccc3)n2)cc1 (configuration not stated),6.4 µM

row,Compound,AC50
1,COc1cc(C2c3cc4c(cc3C(OC3OC5COC(c6cccs6)OC5C(O)C3O)C3COC(=O)C23)OCO4)cc(OC)c1O (configuration not stated),1.11 µM
2,CCCOC(=O)c1ccc(OCC(O)Cn2c(C)nc3ccccc32)cc1 (configuration not stated),0.62 µM
3,COc1ccccc1-c1cc(C(F)(F)F)nc(S(=O)(=O)CCCC(=O)Nc2cccnc2Cl)n1,10.6 µM
4,CCOc1ccc(N2C(=O)CC(Sc3nnnn3-c3ccccc3)C2=O)cc1 (configuration not stated),11.5 µM
5,CN(C)C1=NC[C@H](Cc2ccccc2)N1CCCCc1ccccc1,8.01 µM
6,CC(=O)Nc1cccc(NC(=O)CSc2ncc(-c3ccc(Cl)cc3)n2Cc2ccco2)c1,4.95 µM
7,O=C(Nc1cccc(S(=O)(=O)Nc2ccc(Cl)cc2)c1)c1ccc(Cl)nc1,0.606 µM
8,COc1cc2ncnc(N[C@H](C)c3ccccc3)c2cc1OC,8.72 µM
9,CCCCC1(Cc2ccc([N+](=O)[O-])cc2)C(=O)N(c2ccccc2)N(c2ccccc2)C1=O,10.2 µM
10,Clc1ccc(-c2cc(-c3nnc4n3CCCCC4)c3ccccc3n2)cc1,5.59 µM
11,C=CCOC(=O)c1[nH]c2c(c1C)C(=O)CC(c1cc(OC)c(OC)c(OC)c1)C2 (configuration not stated),1.83 µM
12,O[C@@H]1CN(Cc2ccc(-n3cccn3)cc2)CC[C@H]1N1CCN(c2ccccc2F)CC1,2.13 µM
13,CCN1CCN(Cc2ccc(NC(=O)c3ccc(C)c(NC(=O)c4c[nH]c5cc(C(F)(F)F)ccc5c4=O)c3)cc2C(F)(F)F)CC1,3.13 µM
14,C=C1CC(Cn2cc(Br)c(=O)[nH]c2=O)(c2ccc(-c3ccccc3)cc2)OC1=O (configuration not stated),2.67 µM
15,O=C(OCCC12CC3CC(CC(C3)C1)C2)c1ccc(NCc2cc(O)ccc2O)cc1,1.82 µM
16,COCCOc1nc2c(c(=O)n(C)c(=O)n2C)n1Cc1cccc(OC)c1,2.23 µM
17,COc1ccc(NC(=O)/C(Cl)=C(/Cl)S(=O)Cc2ccccc2)cn1 (configuration not stated),< 0.26 µM
18,Cc1ccc(Nc2c(-c3ccccn3)nc3ccc(C)cn23)cc1,1.74 µM
19,CC(=O)NC(c1ccc(Cl)cc1Cl)c1ccc2cccnc2c1O (configuration not stated),0.465 µM
20,CCN(CC)S(=O)(=O)c1cc(NC(=O)CNc2cccc(S(=O)(=O)N3CCOCC3)c2)ccc1C,2.97 µM
21,COc1ccc(NC(=O)c2nc(S(=O)(=O)Cc3cccc(C)c3)ncc2Cl)c(OC)c1,0.299 µM
22,Cc1nc(-n2[nH]c3c(c2=O)CCCC3)[nH]c(=O)c1Cc1ccccc1,4.44 µM
23,Cc1ccc(-c2nnc(N3CCC(C)CC3)c3ccccc23)cc1C,6.41 µM
24,Cc1ccc(NC(=O)C2CCC(C(C)(C)C)CC2)cc1S(=O)(=O)N1CCOCC1 (configuration not stated),12.1 µM
25,C[C@@H]1C[C@@H]2O[C@H]2/C=C\C=C\C(=O)Cc2c(Cl)c(O)cc(O)c2C(=O)O1,6.4 µM
26,COC(=O)C1=C(c2ccc(F)cc2OCc2ccccc2)C[C@@H]2CC[C@H]1N2C(=O)NCc1ccc(C(F)(F)F)cc1,9.14 µM

row,Compound,AC50
1,O=[N+]([O-])c1c(NCCCO)cc(Sc2nc3ccccc3s2)c2nonc12,1.58 µM
2,CCOC(=O)N1CCN(C(=O)c2ccc3c(c2)N(Cc2ccc(C)cc2)CCS3)CC1,6 µM
3,CCC(=O)N1c2ccc(S(=O)(=O)N3CCN(c4ccc([N+](=O)[O-])cc4)CC3)cc2CC1C (configuration not stated),1.93 µM
4,O=C(/C=C/c1cccc([N+](=O)[O-])c1)n1cnc2ccccc21,0.594 µM
5,Cc1cc(Cl)c(S(=O)(=O)N2CCSCC2)cc1OCC(=O)NC1CCCCC1,4.11 µM
6,CC(=O)c1ccc(N2CCC(c3cc(-c4ccc(Cl)cc4)n[nH]3)CC2)c([N+](=O)[O-])c1,5 µM
7,O=C(Nc1ccc(Cl)c(Cl)c1)Nc1ccc(N2CCCC2)c(S(=O)(=O)Nc2ccccc2Cl)c1,5.13 µM
8,C=CCOc1nc2c(c(=O)n(C)c(=O)n2C)n1Cc1ccc(Cl)cc1,1.03 µM
9,C=C(C)C(=O)O[C@H]1C/C(C)=C\C(=O)/C=C(\C)[C@H](O)[C@@H]2OC(=O)C(=C)[C@@H]21,3.02 µM
10,C=CCn1c(NCCc2ccccc2)nc2c1c(=O)n(C)c(=O)n2C,1.83 µM
11,Cn1c2c(c(=O)n(C)c1=O)C(C(F)(F)F)(C(F)(F)F)N=C(c1ccc(Cl)cc1)N2,1.47 µM
12,COc1ccc(C(NC(=O)C(C)C)c2ccc3cccnc3c2O)cc1 (configuration not stated),1.35 µM
13,C=C(CN(C)C)C(=O)c1ccc(C)cc1C,0.77 µM
14,O=C(OCc1ccccc1)c1ccc(NCc2cc(O)ccc2O)cc1,0.711 µM
15,CC1CN(S(=O)(=O)c2ccc(C(=O)Nc3nc(-c4cc5ccccc5o4)cs3)cc2)CC(C)O1 (configuration not stated),< 0.26 µM
16,CCN(CC)S(=O)(=O)c1ccc(C)c(NC(=S)N2CCN(C/C=C/c3ccccc3)CC2)c1,2.55 µM
17,Cc1ccc(-n2nnnc2-c2cnc(-c3cccnc3)nc2C(F)(F)F)cc1,5.89 µM
18,O=C(NNc1ccnc2cc(Cl)ccc12)C1CCCCC1,< 0.26 µM
19,O=C(Nc1ccc(Cc2ccncc2)cc1)c1ccc([N+](=O)[O-])o1,2.71 µM
20,C=CCOc1nc2c(c(=O)n(C)c(=O)n2C)n1Cc1ccc(Cl)cc1Cl,2.15 µM
21,O=C(Oc1c(CN2CCOCC2)cc(Cl)c2cccnc12)c1ccccc1Cl,4.59 µM
22,Cc1ccc(NC(=O)c2ccc(Cl)c(N3C(=O)C=CC3=O)c2)cc1,1.6 µM
23,CCN(CC)Cc1c(O)ccc2c1O/C(=C\C=C\c1ccccc1)C2=O,1.96 µM
24,CCN(CC)S(=O)(=O)c1ccc(NC(=O)Nc2cccc(C(F)(F)F)c2)cc1,5.6 µM
25,COc1ccc(OC)c(NC(=O)COC(=O)c2c3c(nc4ccccc24)CCCC3)c1,8.67 µM
26,CN(Cc1ccc(OC(F)F)cc1)C(=O)c1cccc(S(=O)(=O)N2CCN(Cc3ccccc3)CC2)c1,2.37 µM

row,Compound,AC50
1,Cc1ccnc(N/C=C(/NC(=O)c2ccccc2)C(=O)N/N=C\c2ccc(F)cc2)n1,> 70 µM (inactive)
2,CCOc1cc(S(=O)(=O)NCc2ccncc2)ccc1Cl,< 0.26 µM
3,CCOC(=O)c1oc2ccc(S(=O)(=O)n3nc(-c4ccccc4)cc3N)cc2c1C,0.854 µM
4,COc1ccc(NS(=O)(=O)c2ccc(NC(=O)C(CCSC)NC(N)=O)cc2)cc1 (configuration not stated),> 70 µM (inactive)
5,COc1ccccc1NC(=O)Cn1cc(C(=O)C2CC2)c2ccccc21,4.76 µM
6,COC1CC2C=C(C)C=CC=CC(=O)NC(c3ccccc3)CC=CCCC(O)CC(=O)C2=C1O (configuration not stated),0.629 µM
7,CN(C)S(=O)(=O)c1ccc(Oc2ccc(S(=O)(=O)N(C)C)cc2)cc1,3.04 µM
8,COc1ccc(C2=Nn3c([n+](C)c4ccccc43)SC2)cc1,1.16 µM
9,CCC(C)NS(=O)(=O)c1ccc(S(=O)(=O)N2CCCC3(CCCCC3)C2)cc1 (configuration not stated),3.44 µM
10,O=C(Nc1nc(-c2ccccc2)cs1)c1ccc(N2CCOCC2)c([N+](=O)[O-])c1,3.75 µM
11,CS(=O)(=O)c1ncc(Cl)c(C(=O)Nc2ccc(N3CCOCC3)cc2)n1,1.21 µM
12,CCS(=O)(=O)c1ncc(Cl)c(C(=O)Nc2ccc(S(=O)(=O)N(C)c3ccccc3)cc2)n1,0.308 µM
13,CC(C)Cn1c(N)c(C(=O)COC(=O)CC23CC4CC(CC(C4)C2)C3)c(=O)n(C)c1=O,1.51 µM
14,CCOC(=O)c1cnc(-n2nc(C)cc2C)nc1NNc1cc(C)nc(-c2ccccc2)n1,3.31 µM
15,COc1cc(C(=O)NC2CCCc3c2cnn3-c2ccccc2F)cc(OC)c1OC (configuration not stated),0.781 µM
16,COc1ccc(CNC(=O)c2cc3c(C)nc4ccccc4c3o2)c(OC)c1,3.22 µM
17,CC(NCc1ccc(OCc2ccc(Cl)cc2)cc1)C(O)c1ccccc1 (configuration not stated),10.9 µM
18,NS(=O)(=O)c1ccc(CCNCc2cc(Cl)ccc2OCc2ccccc2)cc1,4.46 µM
19,CC1=C(C#N)C(C(F)(F)F)(C(F)(F)F)N=C(c2ccco2)N1,7.72 µM
20,c1coc(CN(Cc2ccco2)c2ncnc3c2oc2ccccc23)c1,5.45 µM
21,FC(F)(F)c1nnc(-c2ccccc2)nc1Sc1ccc(Cl)cc1,14.7 µM
22,COc1ccc(CC(N)c2csc(NC(=O)Nc3cccc(C(F)(F)F)c3)n2)cc1 (configuration not stated),8.4 µM
23,CCCCCn1c(=O)c(C(=O)Nc2cnccn2)c(O)c2ccccc21,1.54 µM
24,Cn1cnc([N+](=O)[O-])c1S(=O)(=O)Oc1ccccc1,3.83 µM
